Experimental data taken from patent US20230365584A1, “HETEROCYCLIC PERICONDENSED CDC7 KINASE INHIBITORS FOR THE TREATMENT OF CANCER” (SCHRÖDINGER, INC., priority 2020, published 2023).

Tests used:
[1] = system: phosphorylation of MCM2 S53 in colo205 cells; experiment: Phosphorylated MCM2 MSD electrochemiluminescence assay; assay type: cell-based; settings: Homo sapiens, COLO 205, 20 h incubation, read-out: pMCM2-S53 MSD Colo205 IC50
Procedure: Phosphorylated MCM2 MSD Electrochemiluminescence Assay
The effect of CDC7 inhibitors on cellular phosphorylation of the CDC7 substrate MCM2 was determined using the following protocol:
A total of 40,000 colo205 cells in 100 uL culture medium (1640 medium+10% Fetal bovine serum+1% Penicillin-Streptomycin) were plated in 96-well cell culture plates and allowed to attach for 6 hours. 3-fold serial dilutions of test compounds were prepared in completed PBS at 25×final concentration and 4 uL of each were added to the cells and incubated for 20 hours at 37° C., 5% CO2. Each concentration was tested in duplicate. After the 20 h incubation, cells were washed with 150 uL PBS and lysed with 40 uL MSD lysis buffer (obtained from Meso Scale Diagnostics) supplied with 1×complete ULTRA cocktail inhibitor (obtained from Roche). To detect phosphorylation of MCM2 S53, 30 μL of capture antibody solution (obtained from Abnova, catalog number H00004171-MO1, 1:500) was added to each well of MULTI-ARRAY 96-well High Bind Plate, and incubated overnight. The antibody solution was removed, wells blocked with BSA solution and plates washed, followed by addition of 30 ul of cell lysate per well. After 2 h incubation, plates were washed. 30 μL of 1×detection antibody solution (obtained from Abcam, catalog number ab109133, 1:1000) was then added to each well and incubate for 1 hour. Plates were washed and 30 μL of 1×secondary antibody solution (obtained from MSD, catalog number R32AB-1, 1:5000) was added to each well and incubate for 1 hour. Plates were washed and 150 µL of 1×Read Buffer T was added to each well of the MSD plate. The electrochemiluminescence signal was measured on a MESO SECTOR S600 plate reader. The percentage of remaining phosphorylated MCM2 signal was calculated following the equation below.
[formula] • HC (high control): Cells treated with DMSO • Cpds: Cells treated with test compounds • LC (low control): Cells treated with positive control CDC7 inhibitor

[2] = molecular target: Full length human CDC7 protein co-expressed with DBF4 (Homo sapiens (Human), UniProt O00311); experiment: CDC7 kinase biochemical assay (ADP-Glo, PDKtide substrate); settings: 0.1 nM CDC7/DBF4, 1 uM ATP, 10 uM PDKtide, 4 h
Procedure: CDC7 Kinase Biochemical Assay Protocol:
Full length human CDC7 protein co-expressed with DBF4 was purchased from SignalChem (China). CDC7 kinase activity was determined with PDKtide (SignalChem) as a substrate and by measuring ADP production using the ADP-Glo™ Kinase Assay kit (Promega) following the manufacturers instructions. The kinase reaction was performed using the following conditions: Buffer: 40 mM Tris pH 7.5, 20 mM MgCl2, 0.1 mg/ml BSA and 50 uM DTT. Final reaction mix contained 0.1 nM CDC7/DBF4, 1 uM ATP and 10 uM PDKtide. The kinase reaction time was 4 h. The ADP-Glo signal was measured using an EnVision plate reader (PerkinELmer).
Percent inhibition of CDC7 kinase activity was calculated based on the following formula:
[formula] • Ssample: the signal of compounds • SHigh Ctrl: the signal of high control (DMSO) • SLow Ctrl: the signal of low control (positive control CDC7 inhibitor)

Full length human CDC7 protein co-expressed with DBF4, sequence (O00311 whole entry): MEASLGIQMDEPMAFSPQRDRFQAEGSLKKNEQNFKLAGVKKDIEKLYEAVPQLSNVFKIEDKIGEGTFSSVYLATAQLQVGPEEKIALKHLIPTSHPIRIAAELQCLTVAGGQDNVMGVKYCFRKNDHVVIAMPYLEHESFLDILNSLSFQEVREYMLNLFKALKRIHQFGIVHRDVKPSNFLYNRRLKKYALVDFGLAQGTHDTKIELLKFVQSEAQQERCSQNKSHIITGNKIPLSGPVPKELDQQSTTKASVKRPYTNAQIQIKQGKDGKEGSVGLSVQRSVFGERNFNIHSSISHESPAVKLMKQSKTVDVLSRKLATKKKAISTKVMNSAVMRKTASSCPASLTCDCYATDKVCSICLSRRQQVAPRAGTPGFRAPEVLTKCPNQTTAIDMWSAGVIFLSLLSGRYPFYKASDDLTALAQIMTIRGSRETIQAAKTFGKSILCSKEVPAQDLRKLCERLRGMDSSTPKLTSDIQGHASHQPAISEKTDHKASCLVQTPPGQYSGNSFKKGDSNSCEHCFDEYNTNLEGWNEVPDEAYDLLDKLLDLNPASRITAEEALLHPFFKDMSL
Full length human CDC7 protein co-expressed with DBF4, sequence (Q9UBU7 whole entry partner): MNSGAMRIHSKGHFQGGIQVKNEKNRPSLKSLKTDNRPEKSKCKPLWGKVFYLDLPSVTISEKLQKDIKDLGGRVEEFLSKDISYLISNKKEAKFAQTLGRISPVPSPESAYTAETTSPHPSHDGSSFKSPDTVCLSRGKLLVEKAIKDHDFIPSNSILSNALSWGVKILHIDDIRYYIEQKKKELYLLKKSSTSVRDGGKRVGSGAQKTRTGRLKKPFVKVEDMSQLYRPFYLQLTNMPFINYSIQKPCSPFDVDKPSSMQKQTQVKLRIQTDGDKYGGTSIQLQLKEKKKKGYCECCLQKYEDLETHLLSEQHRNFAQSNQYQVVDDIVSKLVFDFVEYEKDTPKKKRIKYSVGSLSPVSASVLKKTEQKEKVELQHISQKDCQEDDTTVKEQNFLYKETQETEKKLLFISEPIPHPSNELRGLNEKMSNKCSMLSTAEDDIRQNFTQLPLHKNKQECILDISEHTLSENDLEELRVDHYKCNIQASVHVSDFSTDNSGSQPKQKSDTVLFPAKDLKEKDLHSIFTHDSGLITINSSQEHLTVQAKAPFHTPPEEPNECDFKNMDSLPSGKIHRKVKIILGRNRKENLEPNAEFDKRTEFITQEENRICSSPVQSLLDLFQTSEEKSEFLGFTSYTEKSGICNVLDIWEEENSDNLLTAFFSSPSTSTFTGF

| SMILES | IC50 [1] | IC50 [2] |
| --- | --- | --- |
| CC[C@@](C)(O)c1[nH]c(=O)c2sc(-c3cn[nH]c3)c3c2c1CCCO3 (single isomer, unassigned) [Example 58] | < 100 nM | < 1 nM |
| Cc1[nH]c(=O)c2sc(-c3ccncc3)c3c2c1C[C@H](C)O3 (single isomer, unassigned) [Example 8] | 100 to 1000 nM | < 1 nM |
| O=c1[nH]c(CN2CCC2)c2c3c(c(-c4cn[nH]c4)sc13)OCC(F)(F)C2 [Example 44, 7-(azetidin-1-ylmethyl)-10,10-difluoro-2-(1H-pyrazol-4-yl)-12-oxa-3-thia-6-azatricyclo[6.4.1.0^4,13]trideca-1,4(13),7-trien-5-one] | < 100 nM | < 1 nM |
| CC(C)(O)c1[nH]c(=O)c2sc(-c3cn[nH]c3)c3c2c1CCCO3 [Example 28, 5-(2-hydroxypropan-2-yl)-1-(1H-pyrazol-4-yl)-4,6,7,8-tetrahydro-3H-9-oxa-2-thia-4-azabenzo[cd]azulen-3-one] | < 100 nM | < 1 nM |
| CC(C)NCc1[nH]c(=O)c2sc(-c3cn[nH]c3)c3c2c1CCCO3 [Example 24, 5-((isopropylamino)methyl)-1-(1H-pyrazol-4-yl)-4,6,7,8-tetrahydro-3H-9-oxa-2-thia-4-azabenzo[cd]azulen-3-one] | 100 to 1000 nM | < 1 nM |
| O=c1[nH]c(COC2CCC2)c2c3c(c(-c4cn[nH]c4)sc13)OCCC2 [Example 55, 5-(cyclobutoxymethyl)-1-(1H-pyrazol-4-yl)-4,6,7,8-tetrahydro-3H-9-oxa-2-thia-4-azaben-zo[cd]azulen-3-one] | < 100 nM | < 1 nM |
| C[C@@H](c1[nH]c(=O)c2sc(-c3cn[nH]c3)c3c2c1CCCO3)N1CCC1 (single isomer, unassigned) [Example 30] | < 100 nM | < 1 nM |
| O=C(c1[nH]c(=O)c2sc(-c3cn[nH]c3)c3c2c1CCCO3)N1CC(O)C1 [Example 53, 5-(3-hydroxyazetidine-1-carbonyl)-1-(1H-pyrazol-4-yl)-4,6,7,8-tetrahydro-3H-9-oxa-2-thia-4-azabenzo[cd]azulen-3-one] |  | 1 to 10 nM |
| C[C@@H]1Cc2c(CN3CCC(F)(F)C3)[nH]c(=O)c3sc(-c4cn[nH]c4)c(c23)O1 (single isomer, unassigned) [Example 65] |  | < 1 nM |
| Cc1n[nH]cc1-c1sc2c(=O)[nH]c(C)c3c2c1OCCC3 [Example 6, 5-methyl-1-(3-methyl-1H-pyrazol-4-yl)-4,6,7,8-tetrahydro-3H-9-oxa-2-thia-4-azabenzo[cd]azulen-3-one] |  | 1 to 10 nM |
| Cc1[nH]c(=O)c2sc(-c3cn[nH]c3)c3c2c1CC(F)(F)CO3 [Example 43, 10,10-difluoro-7-methyl-2-(1H-pyrazol-4-yl)-12-oxa-3-thia-6-azatricyclo[6.4.1.0^4,13]trideca-1,4(13),7-trien-5-one] |  | < 1 nM |
| C[C@@H]1Cc2c(CN3CC[C@@H]3C)[nH]c(=O)c3sc(-c4cn[nH]c4)c(c23)O1 (single isomer, unassigned) [Example 82] |  | < 1 nM |
| Cc1[nH]c(=O)c2sc(-c3ccncc3)c3c2c1CCO3 [Example 2, 6-methyl-2-(pyridin-4-yl)-5,7-dihydro-3-oxa-1-thia-7-azaacenaphthylen-8(4H)-one] |  | < 1 nM |
| C[C@@](O)(c1[nH]c(=O)c2sc(-c3cn[nH]c3)c3c2c1CCCO3)C1CC1 (single isomer, unassigned) [Example 59] |  | < 1 nM |
| C[C@H]1Cc2c(CN3CC[C@@H]3C)[nH]c(=O)c3sc(-c4cn[nH]c4)c(c23)O1 (single isomer, unassigned) [Example 83] |  | < 1 nM |
| COC[C@H](c1[nH]c(=O)c2sc(-c3cn[nH]c3)c3c2c1CCCO3)n1cccn1 (single isomer, unassigned) [Example 35] |  | < 1 nM |
| C[C@H]1Cc2c(CN3CC(O)C3)[nH]c(=O)c3sc(-c4cn[nH]c4)c(c23)O1 (single isomer, unassigned) [Example 79] |  | < 1 nM |

| SMILES | IC50 [1] | IC50 [2] |
| --- | --- | --- |
| O=c1[nH]c(CN2CC[C@H](O)C2)c2c3c(c(-c4cn[nH]c4)sc13)OCCC2 [Example 11, (S)-5-((3-hydroxypyrrolidin-1-yl)methyl)-1-(1H-pyrazol-4-yl)-4,6,7,8-tetrahydro-3H-9-oxa-2-thia-4-azabenzo[cd]azulen-3-one] |  | < 1 nM |
| C[C@@H](c1[nH]c(=O)c2sc(-c3cn[nH]c3)c3c2c1CCCO3)n1cc(C#N)cn1 (single isomer, unassigned) [Example 26] |  | < 1 nM |
| NCc1[nH]c(=O)c2sc(-c3cn[nH]c3)c3c2c1CCCO3 [Example 17, 7-(aminomethyl)-2-(1H-pyrazol-4-yl)-12-oxa-3-thia-6-azatricyclo[6.4.1.04,13]trideca-1,4(13),7-trien-5-one] |  | 1 to 10 nM |
| CC(c1[nH]c(=O)c2sc(-c3cn[nH]c3)c3c2c1CCCO3)n1nccn1 (racemic) [Example 48, 2-(1H-pyrazol-4-yl)-7-[1-(triazol-2-yl)ethyl]-12-oxa-3-thia-6-azatricyclo[6.4.1.0^4,13] trideca-1,4(13),7-trien-5-one] |  | < 1 nM |
| COC(=O)Cc1[nH]c(=O)c2sc(-c3cn[nH]c3)c3c2c1CCCO3 [Example 76, methyl 2-(3-oxo-1-(1H-pyrazol-4-yl)-4,6,7,8-tetrahydro-3H-9-oxa-2-thia-4-azabenzo[cd]azulen-5-yl)acetate] |  | < 1 nM |
| COc1ccc(CNCc2[nH]c(=O)c3sc(-c4ccncc4)c4c3c2CCCO4)cc1 [Example 16, 5-(((4-methoxybenzyl)amino)methyl)-1-(pyridin-4-yl)-4,6,7,8-tetrahydro-3H-9-oxa-2-thia-4-azabenzo[cd]azulen-3-one] |  | ≥ 10 nM |
| O=c1[nH]c(CN2CCCCC2)c2c3c(c(-c4cn[nH]c4)sc13)OCCC2 [Example 23, 5-(piperidin-1-ylmethyl)-1-(1H-pyrazol-4-yl)-4,6,7,8-tetrahydro-3H-9-oxa-2-thia-4-azabenzo[cd]azulen-3-one] |  | < 1 nM |
| N#CCc1[nH]c(=O)c2sc(-c3cn[nH]c3)c3c2c1CCCO3 [Example 75, 2-(3-oxo-1-(1H-pyrazol-4-yl)-4,6,7,8-tetrahydro-3H-9-oxa-2-thia-4-azabenzo[cd]azulen-5-yl)acetonitrile] |  | < 1 nM |
| CC[C@@](C)(O)c1[nH]c(=O)c2sc(-c3c[nH]nc3C)c3c2c1CCCO3 (single isomer, unassigned) [Example 74] |  | ≥ 10 nM |
| O=c1[nH]c(Cn2cccn2)c2c3c(c(-c4ccncc4)sc13)OCCC2 [Example 21, 7-(pyrazol-1-ylmethyl)-2-(4-pyridyl)-12-oxa-3-thia-6-azatricyclo[6.4.1.0^4,13]trideca-1,4(13),7-trien-5-one] |  | < 1 nM |
| CC[C@](C)(O)c1[nH]c(=O)c2sc(-c3ccncc3)c3c2c1CCCO3 (single isomer, unassigned) [Example 71] |  | < 1 nM |
| CC(C)(O)Cc1[nH]c(=O)c2sc(-c3cn[nH]c3)c3c2c1CCCO3 [Example 77, 5-(2-hydroxy-2-methylpropyl)-1-(1H-pyrazol-4-yl)-4,6,7,8-tetrahydro-3H-9-oxa-2-thia-4-azabenzo[cd]azulen-3-one] |  | < 1 nM |
| O=c1[nH]c(Cn2ccnc2)c2c3c(c(-c4cn[nH]c4)sc13)OCCC2 [Example 22, 7-(imidazol-1-ylmethyl)-2-(1H-pyrazol-4-yl)-12-oxa-3-thia-6-azatricyclo[6.4.1.0^4,13]trideca-1,4(13),7-trien-5-one] |  | < 1 nM |
| COC[C@H](c1[nH]c(=O)c2sc(-c3cn[nH]c3)c3c2c1CCCO3)N1CCC(F)(F)C1 (single isomer, unassigned) [Example 37] |  | 1 to 10 nM |
| COC[C@@H](OC)c1[nH]c(=O)c2sc(-c3cn[nH]c3)c3c2c1CCCO3 (single isomer, unassigned) [Example 39] |  | < 1 nM |
| C[C@@H]1CCN1Cc1[nH]c(=O)c2sc(-c3cn[nH]c3)c3c2c1C[C@H](C)O3 (single isomer, unassigned) [Example 84] |  | < 1 nM |
| Cc1n[nH]cc1-c1sc2c(=O)[nH]c(C)c3c2c1OCC3 [Example 4, 6-methyl-2-(3-methyl-1H-pyrazol-4-yl)-5,7-dihydro-3-oxa-1-thia-7-azaacenaphthylen-8(4H)-one] |  | < 1 nM |
